From patent US8716355B2, “Hydroxylated tolans and related compounds in the treatment of a cancer” (Kent State University, priority 2007, dated 2014)

What was measured:
human recombinant COX-2 = biological target: T1, human recombinant COX-2 (Homo sapiens, UniProt P35354); test: COX Inhibitor Screening Assay, COX2; format: biochemical; conditions: doses of 10 to 200 μM tested
T1 construct: purchased Cayman Chemical 560131
Description: The Cayman COX Inhibitor Screening Assay includes both ovine COX-1 and human recombinant COX-2 enzymes in order to screen isozyme-specific inhibitors.

caspase-3 = test: Caspase-3 activity in DU145 cells (fluorimetric immunosorbent enzyme assay); format: cell-based, human
Method: FIG. 5. Measurement of Caspase-3 Activity in Resveratrol-treated DU145 cells. […] Activity of proteolytic cleavage was determined fluorometrically using Ac-DEVD-AFC as a substrate for activated caspase-3 immobilized on the well surface. The results represent mean±SD of triplicate determinations. The positive control (“Post. Ctl”) was camptothecin-induced apoptosis in U937 cells.
FIG. 6. Measurement of Caspase-3 Activity of KST-201-treated DU145 cells as a function of dose. […] Activity of proteolytic cleavage (caspase-3 activity) and other details are as above.
FIG. 7. Time course of Caspase-3 Activation by KST201 in DU145 cells as a measure of apoptosis. DU145 cells were treated at CD50 of KST201 for 12, 24 or 48 hours. Details are as described for FIG. 5.
The proteolytic activity of caspase-3 in DU145 cells, was measured using a fluorimetric immunosorbent enzyme assay kit. […] After washing and centrifuging, the cell pellet was collected and incubated with dithiothreitol (DTT) lysis buffer on ice. The cell lysate was then transferred to a centrifuge tube for measurement of proteolytic cleavage by caspase-3 utilizing a fluorimetric immunosorbent enzyme assay kit (Roche, Indianapolis, Ind.). Antibody against caspase-3 was diluted in the coating buffer and immobilized to the surface of 96-well plates followed by washing steps. Compound-treated cell lysates and the untreated controls were added to the plate and incubated for one hour at 37° C. Any caspase-3 in the samples was captured by the immobilized antibody. The caspase-3 enzyme cleaved its fluorogenic substrate Ac-DEVD-AFC when it was added to the wells, resulting in. free fluorescent AFC that was measured in a Fluoroskan® Ascent FL plate reader (Thermo, Waltham, Mass.) with a filter set at an excitation/emission of 390 nm/[…]. The fluorescence intensity was proportional to the concentration of AFC determined by a standard curve, generated by different dilutions of AFC standard included in the kit. The amount of activated caspase-3 in the sample was derived from this curve.

prostate cancer = test: Prostate cancer patients (Example VIII A); format: in vivo, human; conditions: daily 10 μg to 5 mg/Kg; no significant differences between the four groups
Method: A group of 40 men aged 55-75 suffering from prostate cancer receive a daily dosage of between 10 μg and 5 mg/Kg body weight of KST-201, KST-213, KST-301 or KST-401 (10 patients per compound). Examination of the patients by clinical, radiographic and histopathological tests show significant shrinkage in tumors, and signs of cell death in 38% of the patients; there are no significant differences between the four treatment groups.

bladder cancer = test: Bladder cancer patients (Example VIII B); format: in vivo, human; conditions: intravenous 10 μg to 5 mg/kg over three months
Method: A group of 20 men and 20 women aged 50-75 with bladder cancer are treated by intravenous injection of between 10 μg and 5 mg/kg of KST-201, KST-213, KST-301 or KST-401. Each compound is given to a group of 5 men and 5 women) over a period of three months. Clinical, radiographic and histopathological tests show significant remission in 35% of patients, accompanied by signs of cell death in 45%. There are no significant differences between the results with the four compounds.

ovarian cancer = test: Ovarian cancer patients (Example VIII D); format: in vivo, human; conditions: daily gelatin capsule 200 mg
Method: A study is carried out in a group of 40 women with ovarian cancer of various grades to determine the effect of treatment with compounds of KST-201, KST-213, KST-301 and KST-401. The administration protocol involves daily administration of a gelatin capsule containing 200 mg of active compound.

breast cancer = test: Breast cancer prevention, skin patch (Example VIII C); format: in vivo, human; conditions: transdermal patch 10 mg to 100 mg daily, one-year study
Method: This study investigates whether KST-201, KST-213, KST-301 and KST-401 administered transdermally each day through a skin patch aid in preventing breast cancer or metastatic cancer following cancer therapy. Patches are prepared with a lipophilic carrier which is readily absorbed through the skin (glycerol cold cream containing glycerin and peanut oil). The HT compound is mixed with the lipophilic cream such that each patch comprises 10 mg to 100 mg of active compound. The patch is applied to the skin each day, and rapid absorption occurs. After two hours, the patch is removed.

DU145 cells = test: Flow cytometric cell cycle analysis of DU145 cells; format: cell-based, human
Method: Initially, the mechanism(s) responsible for the antitumor activity of KST-201 were tested in the DU145 cell line. […] The cell cycle distribution of sham-treated (FIG. 4, upper left) DU145 cells or DU145 cells treated with KST-201 at 14 μM (FIG. 4, upper right), 28 μM (FIG. 4, lower left) or 56 μM (FIG. 4, lower right) were determined by flow cytometry.

HSV-1 = system: HSV-1
Description: FIG. 2. […] A 10% w/v solution of KST-301 in DMSO was applied topically to the epidermal infection site 3×/day for 5 days. Controls animals received the same volume of the DMSO vehicle at the same intervals. Lesions were scored as 0=no visible lesions, +1=papules around the infection site, +2=papules are ulcerated around the infection site with eschar formation, +3=ulcerated zosteriform spread along peripheral nerves to the flank of the animal, +4=ulcerated lesions open on the flank, and +5=death of the animal.
The lesions were scored as in the description for FIG. 2.

rat-organ homogenates [1] = conditions: cited from earlier work
rat erythrocyte (RBC) = conditions: cited from earlier work
rat-organ homogenates [2] = conditions: cited from earlier work; remark: listed apart in the source

T1 sequence (P35354 18-604): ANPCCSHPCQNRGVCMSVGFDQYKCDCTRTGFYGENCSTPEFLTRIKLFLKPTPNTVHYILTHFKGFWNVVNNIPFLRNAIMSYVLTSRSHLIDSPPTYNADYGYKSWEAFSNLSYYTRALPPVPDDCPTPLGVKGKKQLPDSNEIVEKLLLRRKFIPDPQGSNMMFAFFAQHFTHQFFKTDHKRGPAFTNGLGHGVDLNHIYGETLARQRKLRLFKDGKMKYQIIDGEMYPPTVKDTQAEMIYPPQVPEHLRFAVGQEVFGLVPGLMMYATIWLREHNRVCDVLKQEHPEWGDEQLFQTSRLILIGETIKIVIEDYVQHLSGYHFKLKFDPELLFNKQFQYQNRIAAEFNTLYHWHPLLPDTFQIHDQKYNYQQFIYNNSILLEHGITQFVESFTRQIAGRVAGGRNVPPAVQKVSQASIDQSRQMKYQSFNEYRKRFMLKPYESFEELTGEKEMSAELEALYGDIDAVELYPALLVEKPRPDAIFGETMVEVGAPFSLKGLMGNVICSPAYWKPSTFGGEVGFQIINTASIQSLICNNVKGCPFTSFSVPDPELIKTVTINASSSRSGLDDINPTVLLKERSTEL

Oc1ccc(C#Cc2ccc(O)cc2)cc1 [KST-201, 4,4′-dihydroxytolan]
Inhibition of COX2 activity (human recombinant COX-2): about 50% | Caspase-3 activation (caspase-3; 0.5×CD50, 24 hr): effectively activated caspase-3 | Caspase-3 activity (caspase-3; 48 hours or 2×CD50): loss of caspase-3 activity | Caspase-3 activation (caspase-3; CD50 concentration, 24 hr): activated significantly | Patients with significant shrinkage in tumors, and signs of cell death (prostate cancer): 38% | Patients with signs of cell death (bladder cancer): 45% | Patients with significant remission (bladder cancer; no differences between compounds): 35% | Rate of production of ovarian cancer markers (Muc-1, Sp17) (ovarian cancer): significant decrease | Tumor growth during study period (ovarian cancer): Tumors regress or show no further growth | Breast cancer or metastatic cancer in high-risk group (breast cancer): does not show any evidence of breast cancer or other metastatic cancer | Phase of Cell Cycle S (DU145 cells; 14 μM, untreated 40): 28 | Phase of Cell Cycle G0/G1 (DU145 cells; 14 μM, untreated 46): 72 | Phase of Cell Cycle G0/G1 (DU145 cells; 28 μM): 77 | Phase of Cell Cycle G2/M (DU145 cells; 28 μM): 3 | Phase of Cell Cycle S (DU145 cells; 28 μM): 20 | Phase of Cell Cycle G0/G1 (DU145 cells; 56 μM): 78 | Phase of Cell Cycle G2/M (DU145 cells; 56 μM): 4 | Phase of Cell Cycle S (DU145 cells; 56 μM): 18 | Effect on cell cycle (in words) (DU145 cells; 14, 28 and 56 μM): G0/G1-S cell cycle arrest

Oc1ccc(/C=C/c2cc(O)cc(O)c2)cc1 [Resveratrol, 3,5,4′-trihydroxy-trans-stilbene, reference compound]
Severity of HSV-1 lesions (HSV-1; 10% w/v solution in DMSO, topical 3×/day for 5 days, hairless mice): significantly reduced the severity of the lesions | Treated animals in which lesion formation was prevented (HSV-1; topical solution in DMSO): 57-67% | Treated animals showing evidence of HSV infection (HSV-1; topical solution in DMSO, controls 83-100%): 43% | Maximum (average) lesion score (HSV-1; topical solution in DMSO, scale 0 to +5, controls 3.8-4 by days 8 and 9): 0.8-1.2 | Inhibition (%) of autooxidation MDA level at 7.5 μM, In rat brain (rat-organ homogenates [1]; rat brain): 69.93% | Inhibition (%) of autooxidation MDA level at 7.5 μM, In rat kidney (rat-organ homogenates [1]; rat kidney): 40.37% | Inhibition (%) of autooxidation MDA level at 7.5 μM, In rat liver (rat-organ homogenates [1]; rat liver): 67.69% | Inhibition (%) of RBC hemolysis induced by H2O2 at 4 μM (rat erythrocyte (RBC)): 45.23% | Inhibition (%) of Fe2+ − VitC induced level of MDA at 15 μM, In rat brain (rat-organ homogenates [2]; rat brain): 83.20% | Inhibition (%) of Fe2+ − VitC induced level of MDA at 15 μM, In rat kidney (rat-organ homogenates [2]; rat kidney): 62.15% | Inhibition (%) of Fe2+ − VitC induced level of MDA at 15 μM, In rat liver (rat-organ homogenates [2]; rat liver): 50.36%
